Consider 21 compounds from patent US8859574B2 (IRM LLC, priority 2008, dated 2014).

Molecules are shown by their SMILES. pIC50: −log10 of the molar value.

This assay deals with T1, IGF-1R Ba/F3 (Homo sapiens, UniProt P08069).
T1 construct: fused on or other part: TEL- (or BCR-) IGF-1R in Ba/F3: the kinase part holds the site
As to the kind of experiment: Ba/F3 Cell Viability Inhibition Assay (IGF-1R Ba/F3). Format: cell-based, murine. As to conditions: Tel-TK transformed Ba/F3 cells, 48 hours, Britelite luminescence. The procedure, abridged:
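A 48 h compound treatment at 37 °C (3750 cells/well) was followed by Britelite luminescence to measure viability. Cells were Ba/F3 pro-B cells, IL-3-independent via TEL-fused IGF-1R kinase transduction. A logistic fit gave IC50 as 50% viability relative to DMSO control.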

T1 sequence (P08069 999-1274 limits assumed): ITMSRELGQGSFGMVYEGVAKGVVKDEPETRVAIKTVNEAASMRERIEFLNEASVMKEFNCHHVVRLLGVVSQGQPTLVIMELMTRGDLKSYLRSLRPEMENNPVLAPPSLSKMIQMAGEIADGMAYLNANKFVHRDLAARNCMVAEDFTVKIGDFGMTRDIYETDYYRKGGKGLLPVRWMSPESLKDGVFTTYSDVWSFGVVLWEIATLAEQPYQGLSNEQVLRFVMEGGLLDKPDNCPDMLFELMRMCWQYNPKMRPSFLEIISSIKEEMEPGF

In the case of `CCNC1(C(=O)N2CCC(c3cc(F)c(Nc4ncc(Cl)c(Nc5cc(C)[nH]n5)n4)cc3C)CC2)CCC1` [Compound 176, (4-(4-(5-chloro-4-(5-methyl-1H-pyrazol-3-ylamino)pyrimidin-2-ylamino)-5-fluoro-2-methylphenyl)piperidin-1-yl)(1-(ethylamino)cyclobutyl)methanone], the negative logarithm of the IC50 (pIC50) (in general, the negative decadic logarithm of the IC50, by convention in mol/L) was 7.08.
The value for `Cc1cc(Nc2nc(Nc3cc(C(F)(F)F)c(C4CCN(C)CC4)cc3F)ncc2Cl)n[nH]1` [Compound 216, 5-chloro-N2-(2-fluoro-4-(1-methylpiperidin-4-yl)-5-(trifluoromethyl)phenyl)-N4-(5-methyl-1H-pyrazol-3-yl)pyrimidine-2,4-diamine] was 7.33.
`Cc1cc(Nc2nc(Nc3cc(C)c(C4CCN(C(=O)CCN(C)C)CC4)cc3C)ncc2Cl)n[nH]1` [Compound 239, 1-(4-(4-(5-chloro-4-(5-methyl-1H-pyrazol-3-ylamino)pyrimidin-2-ylamino)-2,5-dimethylphenyl)piperidin-1-yl)-3-(dimethylamino)propan-1-one] had a pIC50 of 7.14.
The figure for `CCOC(=O)N1CCC(c2cc(C)c(Nc3ncc(Cl)c(Nc4cc(C)[nH]n4)n3)cc2C)CC1` [Compound 162, ethyl 4-(4-(5-chloro-4-(5-methyl-1H-pyrazol-3-ylamino)pyrimidin-2-ylamino)-2,5-dimethylphenyl)piperidine-1-carboxylate] is 7.89; for `Cc1cc(Nc2nc(Nc3cc(C)c(C4CCNCC4)cc3C)ncc2Cl)n[nH]1` [Compound 256, 5-chloro-N2-(2,5-dimethyl-4-(piperidin-4-yl)phenyl)-N4-(5-methyl-1H-pyrazol-3-yl)pyrimidine-2,4-diamine] it is 7.36.
`CCS(=O)(=O)CCN1CCC(c2cc(F)c(Nc3ncc(Cl)c(Nc4cc(C)[nH]n4)n3)cc2C)CC1` [Compound 57, 5-chloro-N2-(4-(1-(2-(ethylsulfonyl)ethyl)piperidin-4-yl)-2-fluoro-5-methylphenyl)-N4-(5-methyl-1H-pyrazol-3-yl)pyrimidine-2,4-diamine] had a pIC50 of 7.68.
The figure for `Cc1cc(Nc2ncc(Cl)c(NC3CCCCNC3=O)n2)c(F)cc1C1CCN(C)CC1` (stereo not drawn) [Compound 9, 3-(5-chloro-2-(2-fluoro-5-methyl-4-(1-methylpiperidin-4-yl)phenylamino)pyrimidin-4-ylamino)azepan-2-one] is 7.06; for `Cc1cc(Nc2nc(Nc3cc(C(F)(F)F)c(C4CCN(CC(N)=O)CC4)cc3F)ncc2Cl)n[nH]1` [Compound 36, 2-(4-(4-(5-chloro-4-(5-methyl-1H-pyrazol-3-ylamino)pyrimidin-2-ylamino)-5-fluoro-2-(trifluoromethyl)phenyl)piperidin-1-yl)acetamide] it is 7.72.
The figure for `Cc1cc(Nc2nc(Nc3cc(C)c(C4CCN(C(=O)[C@H]5CCCN5C)CC4)cc3F)ncc2Cl)n[nH]1` [Compound 134, (R)-(4-(4-(5-chloro-4-(5-methyl-1H-pyrazol-3-ylamino)pyrimidin-2-ylamino)-5-fluoro-2-methylphenyl)piperidin-1-yl)(1-methylpyrrolidin-2-yl)methanone] is 7.68; for `Cc1cc(Nc2ncc(Cl)c(N[C@@H]3CCCCNC3=O)n2)c(F)cc1C1CCN(C)CC1` (single isomer, unassigned) [Compound 11] it is 7.19; for `CCC(C(N)=O)N1CCC(c2cc(C)c(Nc3ncc(Cl)c(Nc4cc(C)[nH]n4)n3)cc2C)CC1` (stereo not drawn) [Compound 185, 2-(4-(4-(5-chloro-4-(5-methyl-1H-pyrazol-3-ylamino)pyrimidin-2-ylamino)-2,5-dimethylphenyl)piperidin-1-yl)butanamide] it is 8.05.
The figure for `Cc1cc(Nc2nc(Nc3cc(C)c(C4CCNCC4)cc3C)ncc2C(F)(F)F)n[nH]1` [Compound 257, N^2-(2,5-dimethyl-4-(piperidin-4-yl)phenyl)-N^4-(5-methyl-1H-pyrazol-3-yl)-5-(trifluoromethyl)pyrimidine-2,4-diamine] is 7.19; for `Cc1cc(Nc2nc(Nc3cc(C)c(C4CCN(C(C)C(N)=O)CC4)cc3F)ncc2Cl)n[nH]1` (stereo not drawn) [Compound 49, 2-(4-(4-(5-chloro-4-(5-methyl-1H-pyrazol-3-ylamino)pyrimidin-2-ylamino)-5-fluoro-2-methylphenyl)piperidin-1-yl)propanamide] it is 7.82; for `Cc1ccc(N2CCC(c3cc(F)c(Nc4ncc(Cl)c(Nc5cc(C)[nH]n5)n4)cc3C)CC2)nn1` [Compound 277, 5-Chloro-N2-(2-fluoro-5-methyl-4-(1-(6-methylpyridazin-3-yl)piperidin-4-yl)phenyl)-N4-(5-methyl-1H-pyrazol-3-yl)pyrimidine-2,4-diamine] it is 7.01.
On to `Cc1cc(Nc2nc(Nc3cc(C)c(C4CCN(CCC(F)(F)F)CC4)cc3C)ncc2Cl)n[nH]1` [Compound 25, 5-chloro-N2-(2,5-dimethyl-4-(1-(3,3,3-trifluoropropyl)piperidin-4-yl)phenyl)-N4-(5-methyl-1H-pyrazol-3-yl)pyrimidine-2,4-diamine], for which the pIC50 is 7.51.
The value for `CNC(=O)[C@H](C)N1CCC(c2cc(F)c(Nc3ncc(Cl)c(Nc4cc(C)[nH]n4)n3)cc2C)CC1` [Compound 164, (S)-2-(4-(4-(5-chloro-4-(5-methyl-1H-pyrazol-3-ylamino)pyrimidin-2-ylamino)-5-fluoro-2-methylphenyl)piperidin-1-yl)-N-methylpropanamide] was 7.48; that for `Cc1cc(Nc2nc(Nc3cc(C)c(C4CCNCC4)cc3F)ncc2C(F)(F)F)n[nH]1` [Compound 4, N2-(2-fluoro-5-methyl-4-(piperidin-4-yl)phenyl)-N4-(5-methyl-1H-pyrazol-3-yl)-5-(trifluoromethyl)pyrimidine-2,4-diamine] was 6.82.
The value for `Cc1cc(Nc2nc(Nc3cc(C)c(C4CCN(C(C)C(N)=O)CC4)cc3C)ncc2Cl)n[nH]1` (stereo not drawn) [Compound 51, 2-(4-(4-(5-chloro-4-(5-methyl-1H-pyrazol-3-ylamino)pyrimidin-2-ylamino)-2,5-dimethylphenyl)piperidin-1-yl)propanamide] was 8.05.
The figure for `Cc1cc(Nc2nc(Nc3cc(C)c(C4CCN(C)CC4)cc3OC(C)C)ncc2Cl)n[nH]1` [Compound 3, 5-chloro-N2-(2-isopropoxy-5-methyl-4-(1-methylpiperidin-4-yl)phenyl)-N4-(5-methyl-1H-pyrazol-3-yl)pyrimidine-2,4-diamine] is 6.98; for `Cc1cc(Nc2nc(Nc3cc(C)c(C4CCN(C(=O)N5CCOCC5)CC4)cc3F)ncc2Cl)n[nH]1` [Compound 111, (4-(4-(5-chloro-4-(5-methyl-1H-pyrazol-3-ylamino)pyrimidin-2-ylamino)-5-fluoro-2-methylphenyl)piperidin-1-yl)(morpholino)methanone] it is 8.10.
Take `Cc1cc(Nc2nc(Nc3cc(C)c(C4CCN(CCO)CC4)cc3C)ncc2Cl)n[nH]1` [Compound 23, 2-(4-(4-(5-chloro-4-(5-methyl-1H-pyrazol-3-ylamino)pyrimidin-2-ylamino)-2,5-dimethylphenyl)piperidin-1-yl)ethanol]: the pIC50 is 8.22.
